Assay results from US20260262643A1, “HERBICIDAL BENZOXAZINES” (FMC CORPORATION, priority 2022, published 2026).

What was measured:
ryegrass, Italian [1] = assay: Test A postemergence; assay type: in vivo, Lolium multiflorum; conditions: postemergence, 10 days
Procedure, shortened: (§1)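 Loam/sand soil; pre-em directed soil spray at planting, post-em spray at 1–2 leaf (2–10 cm). Compound in non-phytotoxic solvent + surfactant. Greenhouse 10 d; visual injury vs untreated, 0 = no effect, 100 = complete control.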

foxtail, giant [2] = assay: Test A postemergence; assay type: in vivo, Setaria faberi; conditions: postemergence, 10 days
Procedure, shortened: as §1

corn [3] = assay: Test A postemergence; assay type: in vivo, Zea mays; conditions: postemergence, 10 days
Procedure, shortened: as §1

foxtail, giant [4] = assay: Test A preemergence; assay type: in vivo, Setaria faberi; conditions: 0 to 100 scale
Procedure, shortened: as §1

blackgrass [5] = assay: Test A preemergence; assay type: in vivo, Alopecurus myosuroides; conditions: 0 to 100 scale
Procedure, shortened: as §1

ragweed [6] = assay: Test A preemergence; assay type: in vivo, Ambrosia artemisiifolia; conditions: 0 to 100 scale
Procedure, shortened: as §1

oat, wild [7] = assay: Test A postemergence; assay type: in vivo, Avena fatua; conditions: postemergence, 10 days
Procedure, shortened: as §1

pigweed, palmer [8] = assay: Test A postemergence; assay type: in vivo, Amaranthus palmeri; conditions: postemergence, 10 days
Procedure, shortened: as §1

barnyardgrass [9] = assay: Test A postemergence; assay type: in vivo, Echinochloa crusgalli; conditions: postemergence, 10 days
Procedure, shortened: as §1

rice = assay: Test B flooded paddy test; assay type: in vivo, Oryza sativa; conditions: 250 g ai/ha, Flood, 13 days, 0 to 100 scale (0 no effect, 100 complete control)
Procedure, shortened: (§2)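 Flooded to 3 cm at treatment time, 2-leaf plants got the test compound applied straight into the paddy water. They then stayed under constant flood in a greenhouse for 13 days. Ratings used a 0 to 100 visual scale.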

pigweed, palmer [10] = assay: Test A preemergence; assay type: in vivo, Amaranthus palmeri; conditions: 0 to 100 scale
Procedure, shortened: as §1

oat, wild [11] = assay: Test A preemergence; assay type: in vivo, Avena fatua; conditions: 0 to 100 scale
Procedure, shortened: as §1

kochia [12] = assay: Test A postemergence; assay type: in vivo, Bassia scoparia; conditions: postemergence, 10 days
Procedure, shortened: as §1

ryegrass, Italian [13] = assay: Test A preemergence; assay type: in vivo, Lolium multiflorum; conditions: 0 to 100 scale
Procedure, shortened: as §1

soybean [14] = assay: Test A postemergence; assay type: in vivo, Glycine max; conditions: postemergence, 10 days
Procedure, shortened: as §1

barnyardgrass [15] = assay: Test B flooded paddy test; assay type: in vivo, Echinochloa crus-galli; conditions: 250 g ai/ha, Flood, 13 days, 0 to 100 scale (0 no effect, 100 complete control)
Procedure, shortened: as §2

wheat [16] = assay: Test A postemergence; assay type: in vivo, Triticum aestivum; conditions: postemergence, 10 days
Procedure, shortened: as §1

galium = assay: Test A postemergence; assay type: in vivo, Galium aparine; conditions: postemergence, 10 days
Procedure, shortened: as §1

corn [17] = assay: Test A preemergence; assay type: in vivo, Zea mays; conditions: 0 to 100 scale
Procedure, shortened: as §1

horseweed = assay: Test A postemergence; assay type: in vivo, Erigeron canadensis; conditions: postemergence, 10 days
Procedure, shortened: as §1

ducksalad = assay: Test B flooded paddy test; assay type: in vivo, Heteranthera limosa; conditions: 250 g ai/ha, Flood, 13 days, 0 to 100 scale (0 no effect, 100 complete control)
Procedure, shortened: as §2

wheat [18] = assay: Test A preemergence; assay type: in vivo, Triticum aestivum; conditions: 0 to 100 scale
Procedure, shortened: as §1

soybean [19] = assay: Test A preemergence; assay type: in vivo, Glycine max; conditions: 0 to 100 scale
Procedure, shortened: as §1

blackgrass [20] = assay: Test A postemergence; assay type: in vivo, Alopecurus myosuroides; conditions: postemergence, 10 days
Procedure, shortened: as §1

barnyardgrass [21] = assay: Test A preemergence; assay type: in vivo, Echinochloa crusgalli; conditions: visual injury after 10 days, 0 to 100 scale, 0 is no effect, 100 is complete control
Procedure, shortened: as §1

ragweed [22] = assay: Test A postemergence; assay type: in vivo, Ambrosia artemisiifolia; conditions: postemergence, 10 days
Procedure, shortened: as §1

kochia [23] = assay: Test A preemergence; assay type: in vivo, Bassia scoparia; conditions: 0 to 100 scale
Procedure, shortened: as §1

sedge, umbrella = assay: Test B flooded paddy test; assay type: in vivo, Cyperus difformis; conditions: 250 g ai/ha, Flood, 13 days, 0 to 100 scale (0 no effect, 100 complete control)
Procedure, shortened: as §2

[24] = 125 g ai/ha, 0 to 100 scale, 0 no effect, 100 complete control
[25] = 500 g ai/ha, visual injury, 0 to 100 scale (0 no effect, 100 complete control)
[26] = 500 g ai/ha, visual injury after 10 days, 0 is no effect, 100 is complete control

SMILES: COc1cc(C(=O)N2C[C@H](C)Oc3c(Cl)cccc32)cc(-n2cncn2)c1 [Compound 138]
- Ryegrass, Italian plant response rating (ryegrass, Italian [1]; [24]): 70
- Plant response rating, Ryegrass, Italian (ryegrass, Italian [1]; [25]): 100
- Foxtail, Giant plant response rating (foxtail, giant [2]; [24]): 90
- Plant response rating, Foxtail, Giant (foxtail, giant [2]; [25]): 90
- Corn plant response rating (corn [3]; [24]): 80
- Plant response rating, Corn (corn [3]; [25]): 90
- Plant response rating, Foxtail, Giant (foxtail, giant [4]; 125 g ai/ha): 100
- Plant response rating, Foxtail, Giant (foxtail, giant [4]; [26]): 100
- Plant response rating, Blackgrass (blackgrass [5]; 125 g ai/ha): 80
- Plant response rating, Blackgrass (blackgrass [5]; [26]): 90
- Plant response rating, Ragweed (ragweed [6]; 125 g ai/ha): 0
- Plant response rating, Ragweed (ragweed [6]; [26]): 0
- Oat, Wild plant response rating (oat, wild [7]; [24]): 50
- Plant response rating, Oat, Wild (oat, wild [7]; [25]): 80
- Pigweed, Palmer plant response rating (pigweed, palmer [8]; [24]): 30
- Plant response rating, Pigweed, Palmer (pigweed, palmer [8]; [25]): 90
- Barnyardgrass plant response rating (barnyardgrass [9]; [24]): 60
- Plant response rating, Barnyardgrass (barnyardgrass [9]; [25]): 80
- Plant response rating, Rice (rice): 35
- Plant response rating, Pigweed, Palmer (pigweed, palmer [10]; 125 g ai/ha): 90
- Plant response rating, Pigweed, Palmer (pigweed, palmer [10]; [26]): 100
- Plant response rating, Oat, Wild (oat, wild [11]; 125 g ai/ha): 40
- Plant response rating, Oat, Wild (oat, wild [11]; [26]): 90
- Kochia plant response rating (kochia [12]; [24]): 80
- Plant response rating, Kochia (kochia [12]; [25]): 80
- Plant response rating, Ryegrass, Italian (ryegrass, Italian [13]; 125 g ai/ha): 80
- Plant response rating, Ryegrass, Italian (ryegrass, Italian [13]; [26]): 100
- Soybean plant response rating (soybean [14]; [24]): 100
- Plant response rating, Soybean (soybean [14]; [25]): 100
- Plant response rating, Barnyardgrass (barnyardgrass [15]): 35
- Wheat plant response rating (wheat [16]; [24]): 40
- Plant response rating, Wheat (wheat [16]; [25]): 80
- Galium plant response rating (galium; [24]): 80
- Plant response rating, Galium (galium; [25]): 100
- Plant response rating, Corn (corn [17]; 125 g ai/ha): 10
- Plant response rating, Corn (corn [17]; [26]): 10
- Horseweed plant response rating (horseweed; [24]): 0
- Plant response rating, Horseweed (horseweed; [25]): 0
- Plant response rating, Ducksalad (ducksalad): 70
- Plant response rating, Wheat (wheat [18]; 125 g ai/ha): 40
- Plant response rating, Wheat (wheat [18]; [26]): 90
- Plant response rating, Soybean (soybean [19]; 125 g ai/ha): 70
- Plant response rating, Soybean (soybean [19]; [26]): 100
- Blackgrass plant response rating (blackgrass [20]; [24]): 80
- Plant response rating, Blackgrass (blackgrass [20]; [25]): 90
- Plant response rating, Barnyardgrass (barnyardgrass [21]; 125 g ai/ha): 90
- Plant response rating, Barnyardgrass (barnyardgrass [21]; 500 g ai/ha): 100
- Ragweed plant response rating (ragweed [22]; [24]): 0
- Plant response rating, Ragweed (ragweed [22]; [25]): 40
- Plant response rating, Kochia (kochia [23]; 125 g ai/ha): 0
- Plant response rating, Kochia (kochia [23]; [26]): 50
- Plant response rating, Sedge, Umbrella (sedge, umbrella): 75
